Our source for the TGI values is PubChem BioAssay (NCI).

What all share (experiment): growth of human tumour cells (NCI), 48 h
In assay [1] the test system is NCI/ADR-RES ovarian.
For assay [2], the system named is SNB-75 CNS.
For assay [3], the system named is MDA-MB-435.
Assay [4] relates to M14 melanoma.
Assay [5] concerns HCC-2998 colon.
For assay [6], the system named is RXF 393 renal.
Assay [7] deals with KM12 colon.
In assay [8] the test system is COLO 205 colon.
Assay [9] deals with MDA-N.
For assay [10], the system named is UO-31 renal.

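The compound was tested at five concentrations on cells cultured in 96-well plates, with a 48-hour exposure period. TGI: total growth inhibition.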

On to `O=C(O)C1CCCCN1C(=O)Cc1c[nH]c2ccccc12` (centres undefined), for which the TGI in assay [1], in assay [2], in [3], in [4], in assay [5] and in assay [6] was over 100 µM throughout. The TGI in [7], in assay [8] and in [9] was over 100 µM in each case.

In the case of `O=C(/C=C1\N=C(c2ccccc2)N(c2nc3c(Cl)cc(Cl)cc3s2)C1=O)/C=C/c1ccccc1`, the TGI in [1], in [2], in [3], in [10], in assay [4] and in [5] was over 100 µM in each case. Also, the TGI in assay [6], in assay [7], in assay [8] and in [9] was over 100 µM throughout.

With `COC(=O)C1CC23C4=C(CCC41)CCC1CN4CC(C)C(CC(OC(C)=O)C12COC(C)=O)C43O` (centres undefined), the TGI in assay [1], in [2], in assay [3], in assay [10], in assay [4] and in assay [5] was over 100 µM throughout. Also, the TGI in [6], in assay [7], in assay [8] and in assay [9] was over 100 µM each time.

Consider `C[N+]1(CCC(=O)c2ccccc2)CCC2CCC(C2)C1` (centres undefined), for which the TGI in assay [1], in assay [2], in [3], in [10], in [4] and in assay [5] was over 100 µM each time. Besides, the TGI in assay [6], in [7], in [8] and in assay [9] was over 100 µM in each case.

Turning to `Cc1ccc2nc(-c3ccc(NC(=O)c4ccc(N)cc4)c(S(=O)(=O)O)c3)sc2c1`, the TGI in [1], in assay [2], in assay [3], in assay [10], in [4] and in assay [5] was over 100 µM in each case. The TGI in assay [6], in assay [7], in [8] and in assay [9] was over 100 µM each time.

`O=C1C2Cc3c(n(C(=O)c4ccccc4)c4ccccc34)CC2C(=O)N1c1ccc(Nc2ccc(N3C(=O)C4Cc5c(n(C(=O)c6ccccc6)c6ccccc56)CC4C3=O)cc2)cc1` (centres undefined): the TGI in assay [1], in assay [2], in assay [3], in assay [10], in assay [4] and in [5] was over 100 µM each time. Besides, the TGI in [6], in assay [7], in [8] and in assay [9] was over 100 µM each time.

On to `CC1(C(=O)O)C[C@](C)(C(=O)OCc2ccccc2)C[C@](C)(C(=O)OCc2ccccc2)C1` (some centres undefined), for which the TGI is over 100 µM in assay [1]; 79.7 µM in [2]; over 100 µM in assay [3]; 40.7 µM in [10]; over 100 µM in assay [4]; 79.8 µM in assay [5]. Besides, the TGI in assay [6] is 56.4 µM; in [7] it was 99.5 µM; in assay [8], 33.8 µM; in assay [9] it was over 100 µM.

For `O=C(O)C(O)C(O)C(O)C(O)C(=O)O` (centres undefined), the TGI in assay [1], in [2], in assay [3], in assay [10], in assay [4] and in [5] was over 100 µM throughout. The TGI in [6], in assay [7], in assay [8] and in assay [9] was over 100 µM in each case.

On to `Nc1cc(S(=O)(=O)O)cc2ccc(S(=O)(=O)O)cc12`, for which the TGI in [1], in assay [2], in [3], in assay [10], in [4] and in assay [5] was over 100 µM each time. The TGI in [6], in assay [7], in [8] and in assay [9] was over 100 µM throughout.

In the case of `COC(=O)C1=C(OC(=O)/C=C/c2ccc(Cl)cc2)C(C(=O)OC)[C@]2(O)[C@@H](C(=O)OC)[C@H]1C[C@@H](c1ccccc1)[C@@H]2C(=O)OC` (some centres undefined), the TGI is over 28.8 µM in assay [1]; over 100 µM in assay [2]; over 100 µM in [3]; over 30.9 µM in assay [10]; 49.8 µM in assay [4]; 46.9 µM in assay [5]. In addition, the TGI in assay [6] is over 100 µM; in assay [7], over 100 µM; in [8], over 22.2 µM; in assay [9], over 23.1 µM.

On to `CCN1CCN(c2nc3ccccc3nc2C(=O)c2ccc(OC)c(OC)c2)CC1`, for which the TGI was 3.39 µM in assay [1]; 30.1 µM in assay [2]; 90.6 µM in assay [3]; 47.1 µM in assay [10]; 31.3 µM in [4]; 9.71 µM in assay [5]. The TGI amounted to 29.8 µM in assay [6], 53.2 µM in assay [7], 2.91 µM in assay [8] and 97.7 µM in [9].
